Reference: publication PMC11317636, “Convergent evolution in toxin detection and resistance provides evidence for conserved bacterial–fungal interactions” (Proceedings of the National Academy of Sciences of the …, 2024)

Legend:
[1] = molecular target: T1, DnoP (PA4170) (Pseudomonas aeruginosa, UniProt A0A0H2ZG54); assay: DTNB assay of residual free thiols at […] nm; type: biochemical; conditions: 40 µM TCEP-reduced substrate, 0.2 µM enzyme, 20 mM Tris-HCl pH 7.0, 100 mM NaCl, room temperature, 15 min
T1 construct: gene PA14_09950; one replicate with C-terminal mCherry fusion purified from A. fumigatus
T1 sequence (A0A0H2ZG54 entry or part of it): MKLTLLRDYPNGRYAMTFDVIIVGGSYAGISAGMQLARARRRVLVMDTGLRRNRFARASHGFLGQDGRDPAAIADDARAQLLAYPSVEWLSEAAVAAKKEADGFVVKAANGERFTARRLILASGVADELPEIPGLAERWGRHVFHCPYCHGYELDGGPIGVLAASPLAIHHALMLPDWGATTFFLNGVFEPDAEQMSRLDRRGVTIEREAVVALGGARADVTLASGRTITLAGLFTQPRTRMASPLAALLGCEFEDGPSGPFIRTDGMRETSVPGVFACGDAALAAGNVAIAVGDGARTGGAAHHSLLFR

[2] = molecular target: T2, GliT (Aspergillus fumigatus, UniProt E9RAH5); type: biochemical; conditions: 40 µM TCEP-reduced substrate, 0.2 µM enzyme, 20 mM Tris-HCl pH 7.0, 100 mM NaCl, room temperature, 15 min
T2 construct: one replicate with C-terminal mCherry fusion purified from A. fumigatus (A1160 background)
T2 sequence (E9RAH5 whole entry, the tested form may be a part): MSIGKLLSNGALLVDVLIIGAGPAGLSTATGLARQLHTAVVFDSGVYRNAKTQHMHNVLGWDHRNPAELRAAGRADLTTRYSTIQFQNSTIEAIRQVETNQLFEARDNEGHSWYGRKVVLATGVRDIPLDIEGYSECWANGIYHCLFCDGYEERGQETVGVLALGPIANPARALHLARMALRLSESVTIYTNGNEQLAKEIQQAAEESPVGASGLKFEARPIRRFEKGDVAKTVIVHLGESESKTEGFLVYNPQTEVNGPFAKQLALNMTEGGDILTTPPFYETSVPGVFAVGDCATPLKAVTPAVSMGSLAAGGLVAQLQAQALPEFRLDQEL

CN1C(=O)C2(S)CC3=CC=CC(O)C3N2C(=O)C1(S)CO (centres unmarked) [compound 1, reduced gliotoxin]
DTNB assay of residual free thiols at 412 nm [1]: Recombinant PA4170 and GliT catalyzed disulfide oxidation of both gliotoxin and holomycin
DTNB assay of residual free thiols at 412 nm [2]: Recombinant PA4170 and GliT catalyzed disulfide oxidation of both gliotoxin and holomycin
